The values below come from patent US9302012B2, “Anti-bacterial siderophore-aminopenicillin conjugates” (University of Notre Dame Du Lac, priority 2012, dated 2016).

The subject of the assay is collection of strains of P. aeruginosa. Briefly: Agar well diffusion test (several strains). Conditions: control samples. The assay is classed as cell-based, Pseudomonas aeruginosa. The procedure: Conjugates 10 and 11 were first evaluated for their antibacterial ability against a collection of strains of P. aeruginosa using the agar well diffusion test. The influence of iron concentration on antibacterial activity was probed as well by conducting assays in iron-rich and iron-deficient media.
All liquids and media were sterilized by autoclaving (121° C., 15 min) before use. All aqueous solutions and media were prepared using distilled, deionized, and filtered water (Millipore Milli-Q Advantage A10 Water Purification System). Luria broth (LB) was purchased from VWR. Mueller-Hinton No. 2 broth (MHII broth; cation adjusted) was purchased from Sigma-Aldrich (St. Louis, Mo.). Iron-deficient (—Fe) MHII broth was prepared by adding 0.8 mL of a 1 mg/mL sterile aq. solution of 2,2′-bipyridine to 49.2 mL of MHII broth. Iron-rich (+Fe) MHII broth was prepared by adding 0.8 mL of a 1 mg/mL sterile aq. solution of FeCl3 to 49.2 mL of MHII broth. Mueller-Hinton No. 2 agar (MHII agar; HiMedia Laboratories) was purchased from VWR. Iron-deficient (−Fe) MHII agar was prepared by adding 0.5 mL of a 1 mg/mL sterile aq. solution of 2,2′-bipyridine to 34 mL of melted MHII agar with gentle mixing. Iron-rich (+Fe) MHII agar was prepared by adding 0.5 mL of a 1 mg/mL sterile aq. solution of FeCl3 to 34 mL of melted MHII agar with gentle mixing. See also Wencewicz, T. A. Dissertation, University of Notre Dame, Notre Dame, Ind., 2011, for relevant techniques.
Antibacterial Susceptibility Testing by the Agar Diffusion Assay.
Antibacterial activity of the compounds was determined by a modified Kirby-Bauer agar diffusion assay. Overnight cultures of test organisms were grown in LB broth for 18-24 h and standard suspensions of […] were prepared in saline solution (0.9% NaCl) according to a 0.5 BaSO4 McFarland Standard. This standardized suspension (0.1 mL) was added to 34 mL of sterile, melted agar (−Fe or +Fe) tempered to 47-50° C. After gentle mixing, the inoculated agar media was poured into a sterile plastic petri dish (145 mm×20 mm) and allowed to solidify near a flame with the lid ajar for about 30 min. Wells of 9.0 mm diameter were cut from the petri dish agar and filled with exactly 50 μL of the test sample solution. The petri dish was incubated at 37° C. for 18-24 h and the inhibition zone diameters were measured (mm) with an electronic caliper after 24 h.
(In agar diffusion tests the substance spreads into inoculated agar from a disc or well.)

With `CC(=O)Oc1cccc(C(=O)NCCCC(CCCNC(=O)c2cccc(OC(C)=O)c2OC(C)=O)(CCCNC(=O)c2cccc(OC(C)=O)c2OC(C)=O)NC(=O)CCC(=O)O)c1OC(C)=O` [Compound 9], the “inhibitory effect in the agar well diffusion test” value is “did not show any inhibitory effect”.

On to `CC(=O)Oc1cccc(C(=O)NCCCC(CCCNC(=O)c2cccc(OC(C)=O)c2OC(C)=O)(CCCNC(=O)c2cccc(OC(C)=O)c2OC(C)=O)NC(=O)CCC(=O)N[C@@H](C(N)=O)c2ccccc2)c1OC(C)=O` [Compound S1], for which the “inhibitory effect in the agar well diffusion test” value is “did not show any inhibitory effect”.
